What was measured:
[1] = test system: Stapylococcus aureus (SA 113); test: Solution exposure of antimicrobial hyaluronic acid hydrogels to living cultures (SA 113); format: cell-based; settings: 20 μl early phase culture in 980 μl formulation
Experimental: (§1) By way of Examples, the following evaluations were done to assess the performance of the antimicrobial hyaluronic acid gels. Solution exposure of the antimicrobial hyaluronic acid hydrogels immersed in early phase concentrations of 2 test microorganisms were conducted. Additionally, the physical properties of the hydrogels were assessed to determine their shear/thixotropic properties.
(§2) In this study, two strains of bacteria, namely Pseudomonas aeruginosa (PAO1) and Stapylococcus aureus (SA 113) were evaluated for total kill of each of the strains after 4 and 24 hours of exposure to the taurolidine-HA formulation. 20 μl of early phase culture of each strain was placed in 980 μl of each Hyaluronic Acid formulation. Samples of remaining bacteria concentrations were determined for the samples after 4 and 24 hours of exposure. Two controls (with and without HA), and HA gels with 3 different drug concentrations were evaluated. They were also evaluated against a known antimicrobial, gentamicin.

[2] = test system: Pseudomonas aeruginosa (PAO1); test: Solution exposure of antimicrobial hyaluronic acid hydrogels to living cultures (PAO1); format: cell-based; settings: 20 μl early phase culture in 980 μl formulation
Experimental: as §1, §2

gentamicin
SA113 (4 hr) remaining bacteria concentration ([1]; 4 hours of exposure): 3.77E+02 | SA113 (24 hr) remaining bacteria concentration ([1]; 24 hours of exposure): 8.33E+00 | PA01 (4 hr) remaining bacteria concentration ([2]; 4 hours of exposure): 0.00E+00 | PA01 (24 hr) remaining bacteria concentration ([2]; 24 hours of exposure): 0.00E+00
